Experimental data as given in patent US8551967B2, “Formulations with anti-tumour action” (Gentium SpA, priority 2003, dated 2013).
Like-named read-outs stand apart in the source and are kept apart here.

Key:
mammary carcinoma 13762 = test: Tumour growth delay in rats carrying mammary carcinoma 13762; conditions: for Days to reach 500 mm^3 / TGD: chemotherapy alone, ip days 8 & 18; for Days to reach 500 mm^3: tumour implanted day 0; for TGD: versus controls
Protocol: The hepatotoxin monocrotaline and the AA carmustine (BCNU), alone or in association with DF, were tested in vivo in an experimental model which used rats carrying mammary carcinoma 13762.
Table 1. […] The tumour was implanted on day 0 and the chemotherapy was administered on day 8 and day 18.

bovine endothelial cells = test: Cytotoxicity of alkylating agents with and without DF in bovine endothelial cells in culture; format: cell-based; conditions: DF 50 μg/ml with alkylating agents
Source text: In the following study, DF was examined in combination with antiblastic cytotoxic agents in a model of mouse EMT-6 mammary carcinoma cells and in bovine endothelial cells, in cell cultures and in an experimental model in which rats carrying tumours subjected to high doses of chemotherapy were used.

[1] = test system: Lewis pulmonary carcinoma; test: Tumour growth and pulmonary metastases in mice carrying Lewis pulmonary carcinoma; format: in vivo; conditions: DF added to paclitaxel with or without carboplatin
Source text: The mechanism underlying these effects remains to be explained, but it is possible that the anti-adhesive properties of DF are involved, given the role of cell adhesion in the mechanisms implicated in drug resistance (8, 9).

MM-1S human MM cells = format: in vivo; conditions: for Tumor volume: P<0.05
Protocol: It was also tested whether DF has in vivo activity in a murine model of human multiple myeloma (MM). Sixty male SCID/NOD mice (6-8 weeks old) were irradiated (450 rads) and, 24 hrs later, injected s.c. with 5×10^6 MM-1S human MM cells. Upon formation of palpable tumors, mice were randomly assigned to 6 cohorts (10 mice each) receiving a) vehicle; b) DF (i.v. 450 mg/kg b.i.d); c) melphalan (MEL) 2.5 mg/kg i.p. once weekly; d) cyclophosphamide (CTX) 50 mg/kg i.p., on days 8, 10, 12, 20, 22 and 24; e) and f) combinations of DF (300 mg/kg i.v.) with MEL or CTX, respectively. Mice were monitored q3 days for body weight, potential toxicity, and electronic caliper-based tumor volumes.
The major endpoints for efficacy were a) tumor volume changes and b) overall survival (time-to-sacrifice, performed when tumor diameters>2 cm).

MM cells = test: In vitro direct cytotoxicity against MM cells; format: cell-based; conditions: DF alone
[2] = test system: mouse EMT-6 mammary carcinoma cells; test: Cytotoxicity of alkylating agents with and without DF in EMT-6 cells in culture
[3] = monocrotaline or BCNU together with DF
[4] = versus cytotoxic therapy alone, data not presented

Compound: C[C@H]1C(=O)O[C@@H]2CCN3CC=C(COC(=O)[C@](C)(O)[C@]1(C)O)[C@H]23 [Monocrotaline, monocrotaline]
- Days to reach 500 mm^3 (mammary carcinoma 13762): 15.6 ± 1.0 days
- TGD (mammary carcinoma 13762): 1.0 days

Compound: defibrotide [DF]
- Increase in cytotoxicity of AAs in association with DF (bovine endothelial cells): no increase in cytotoxicity
- Tumour growth delay (TGD), in words (mammary carcinoma 13762; DF alone versus control, p<0.05, repeat study): significant tumour growth delay
- Tumour growth delay (TGD), in words (mammary carcinoma 13762; DF associated with CTX and BCNU, p<0.04, greater than each agent alone, repeat study): particularly significant
- Additional toxicity in the animals (mammary carcinoma 13762; [3]): no additional toxicity
- Tumour growth delay (TGD), in words (mammary carcinoma 13762; [3]): significant tumour growth delay
- Toxicity [1]: without showing an obvious increase in toxicity
- Number of pulmonary metastases [1, 4]: reduction
- Tumour growth (TGD) [1, 4]: reduction in tumour growth
- Tumor volume (MM-1S human MM cells; DF 300 mg/kg i.v. with MEL or CTX versus single-agent chemotherapy): significantly lower tumor volumes than the respective single-agent cytotoxic chemotherapy
- Tumor volume (MM-1S human MM cells; DF i.v. 450 mg/kg b.i.d versus control mice): significantly lower tumor volumes than in control mice
- Tolerability (hemorrhagic complications, body weight) (MM-1S human MM cells; DF single agent (i.v. 450 mg/kg b.i.d) or 300 mg/kg i.v. with MEL or CTX, P>0.05): well tolerated without hemorrhagic complications or body weight loss
- Overall survival (time-to-sacrifice), Kaplan-Meier (MM-1S human MM cells; DF single agent or with MEL or CTX, versus vehicle or MEL- or CTX-treated groups, P<0.001 log-rank): statistically significant prolongation of overall survival
- Direct in vitro cytotoxic effect (MM cells): have not shown a significant direct in vitro cytotoxic effect
- Increment in the killing of tumour cells by 4HC ([2]; DF 50 μg/ml before and during, or during and after 4HC, 4HC 50-250 μmol): 2 logarithmic units
- Effect of DF on cytotoxicity of melphalan ([2]; DF before and during or during and after melphalan): did not show any significant effect
- Effect of DF on cytotoxicity of carboplatin ([2]; DF with carboplatin, compared with thiotepa result): A similar result

Compound: O=NN(CCCl)C(=O)NCCCl [BCNU, carmustine]
- Days to reach 500 mm^3 (mammary carcinoma 13762): 18.0 ± 2.5 days
- TGD (mammary carcinoma 13762): 3.4 days
